# Laboratory results published in publication PMC6858373 (Scientific Reports, 2019).
# Like-named read-outs stand apart in the source and are kept apart here.
# Key:
# [1] = molecular target: full-length P. pyralis luciferase (Photinus pyralis, UniProt P08659, K549A/L550V/N119G/N50D/S548I); format: cell-based; conditions: CC_NCI screening, normalized to on-plate 0.3% DMSO controls; for Luciferase Assay % Lum: full-length luciferase counter-screen luminescence; for Luciferase Assay Z-score: full-length luciferase counter-screen
# full-length P. pyralis luciferase, sequence (P08659 whole entry N50D/N119G/S548I/K549A/L550V, looked up): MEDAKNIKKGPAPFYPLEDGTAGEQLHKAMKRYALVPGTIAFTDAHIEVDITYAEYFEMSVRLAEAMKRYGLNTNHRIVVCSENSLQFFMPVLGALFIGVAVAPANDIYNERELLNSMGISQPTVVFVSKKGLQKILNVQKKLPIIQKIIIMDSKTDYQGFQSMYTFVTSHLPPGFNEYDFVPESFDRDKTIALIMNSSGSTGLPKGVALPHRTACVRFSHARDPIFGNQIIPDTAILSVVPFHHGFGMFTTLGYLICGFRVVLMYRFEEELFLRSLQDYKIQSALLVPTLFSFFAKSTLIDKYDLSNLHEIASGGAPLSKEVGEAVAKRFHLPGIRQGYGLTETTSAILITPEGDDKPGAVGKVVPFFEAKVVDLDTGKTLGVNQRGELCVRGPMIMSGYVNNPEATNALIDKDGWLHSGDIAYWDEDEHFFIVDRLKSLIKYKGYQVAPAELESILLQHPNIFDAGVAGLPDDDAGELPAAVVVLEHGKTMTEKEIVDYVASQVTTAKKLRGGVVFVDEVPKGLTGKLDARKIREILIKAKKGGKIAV
# Clone V cells [2] = test: CellTiter Blue (CTB) cell viability counter-screen; conditions: CC_NCI screening, normalized to on-plate 0.3% DMSO controls; for Toxicity Assay % Fluor: CTB cell viability fluorescence; for Toxicity Assay Z-score: CTB cell viability
# [3] = molecular target: T1, FGF14:Nav1.6 C-tail complex (Homo sapiens, UniProt Q92915+Q9UQD0); test: Split-luciferase complementation assay (LCA) in Clone V double stable HEK293 cells; format: cell-based; conditions: for Split Luciferase Assay Z-score Set 1 / Split Luciferase Assay % Lum Set 1: biological replicate Set 1; for Split Luciferase Assay Z-score Set 1 / Split Luciferase Assay Z-score Set 2: normalized to on-plate 0.3% DMSO controls; for Split Luciferase Assay % Lum Set 1 / Split Luciferase Assay %Lum Set 2: normalized to on-plate 0.3% DMSO controls (n=16 per plate); for Split Luciferase Assay Z-score Set 2 / Split Luciferase Assay %Lum Set 2: biological replicate Set 2; for Split Luciferase Assay %Lum Avg: average of Set 1 and Set 2, normalized to 0.3% DMSO controls
# T1 construct: polymerase chain reaction (PCR) amplification of the FGF14 open reading frame (nt 1–855); C-terminal fragment of Nav1.6 (amino acids 1763–1976) fused with CD4ΔC-tail (amino acids 1–395); expressed in transfected cells
# T1 sequence (Q92915 1-252 isoform Q92915-2): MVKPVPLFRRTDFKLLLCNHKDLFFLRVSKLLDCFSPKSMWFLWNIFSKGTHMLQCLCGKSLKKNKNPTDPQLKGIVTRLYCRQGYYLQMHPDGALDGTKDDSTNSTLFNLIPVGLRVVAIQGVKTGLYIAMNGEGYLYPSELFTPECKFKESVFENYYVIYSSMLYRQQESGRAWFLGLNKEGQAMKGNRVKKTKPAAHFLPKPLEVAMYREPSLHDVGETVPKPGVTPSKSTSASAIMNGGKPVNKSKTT
# T1 sequence (Q9UQD0 1763-1976 limits assumed): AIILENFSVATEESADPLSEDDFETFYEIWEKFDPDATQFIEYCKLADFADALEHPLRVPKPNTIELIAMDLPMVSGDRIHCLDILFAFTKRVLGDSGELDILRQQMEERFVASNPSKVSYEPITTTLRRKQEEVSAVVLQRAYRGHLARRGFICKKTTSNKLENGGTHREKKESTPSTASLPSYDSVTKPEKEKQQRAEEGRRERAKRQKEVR
# Clone V cells [4] = conditions: for Toxicity Assay Z-score: human, 16 h, 30 µM
# [5] = CC_NCI screening, LCA luminescence
SMILES,Luciferase Assay % Lum (full-length luciferase counter-screen) [1],Luciferase Assay Z-score (full-length luciferase counter-screen) [1],Toxicity Assay Z-score (CTB cell viability) (Clone V cells [2]),Split Luciferase Assay Z-score Set 1 ([3]; CC_NCI screening),Split Luciferase Assay % Lum Set 1 ([3]; CC_NCI screening),Split Luciferase Assay Z-score Set 2 ([3]; CC_NCI screening),Split Luciferase Assay %Lum Set 2 ([3]; CC_NCI screening),Split Luciferase Assay %Lum Avg [3],Toxicity Assay % Fluor (CTB cell viability fluorescence) (Clone V cells [4]),Luciferase Assay % Lum [1],Luciferase Assay Z-score [1],Toxicity Assay % Fluor (Clone V cells [2]),"Split Luciferase Assay %Lum Set 2 [3, 5]","Split Luciferase Assay Z-score Set 2 ([3]; CC_NCI screening, LCA)",Split Luciferase Assay %Lum Avg ([3]; CC_NCI screening),Toxicity Assay Z-score (Clone V cells [4]),"Split Luciferase Assay % Lum Set 1 [3, 5]","Split Luciferase Assay Z-score Set 1 ([3]; CC_NCI screening, LCA)",Toxicity Assay Z-score (Clone V cells [2])
CC(=O)OCCN1C(=O)c2c(C)nc3ccc(S(=O)(=O)N4CCOCC4)cc3c2C1=O [IVACHTIN],102.63%,0.34,1.25,0.99,112.30%,-3.23,60.34%,86.32%,108.95%,,,,,,,,,,
CS(=O)(=O)CCNCc1ccc(-c2ccc3ncnc(Nc4ccc(OCc5cccc(F)c5)c(Cl)c4)c3c2)o1 [LAPATINIB],,,,,,,,,,87.41%,-1.61,85.57%,95.71%,-0.35,107.26%,-2.02,,,
N#Cc1ccc(C(c2ccc(C#N)cc2)n2cncn2)cc1 [Letrozole],,,,,,,,,,99.90%,-0.01,93.68%,115.47%,1.26,107.36%,-0.88,99.25%,-0.06,
COC1=CC(c2cc3ccccc3[nH]2)=N/C1=C\c1[nH]c(C)cc1C [OBATOCLAX],,,,,,,,,,78.33%,-2.78,87.39%,61.38%,-3.14,60.20%,-1.76,59.03%,-3.31,
COC(=O)C[C@](O)(CCCC(C)(C)O)C(=O)O[C@@H]1C(OC)=C[C@]23CCCN2CCc2cc4c(cc2[C@H]13)OCO4 [Omacetaxine mepesuccinate],,,,,,,,,,87.82%,-1.56,93.81%,19.77%,-6.53,20.37%,-0.87,20.98%,-6.39,
Cn1nnc2c(C(N)=O)ncn2c1=O [Temozolomide],,,,,,,,,,99.34%,-0.09,84.35%,109.23%,0.75,108.05%,,106.86%,0.55,-2.19
COc1cc2c(Nc3ccc(Br)cc3F)ncnc2cc1OCC1CCN(C)CC1 [Vandetanib],,,,,,,,,,80.83%,-2.46,97.46%,115.47%,1.26,102.47%,,89.47%,-0.85,-0.36
CCCS(=O)(=O)Nc1ccc(F)c(C(=O)c2c[nH]c3ncc(-c4ccc(Cl)cc4)cc23)c1F [Vemurafenib],,,,,,,,,,93.28%,-0.86,86.56%,105.07%,0.41,104.88%,,104.69%,0.38,-1.88
O=C(CCCCCCC(=O)Nc1ccccc1)NO [Vorinostat],,,,,,,,,,97.95%,-0.26,101.32%,88.43%,-0.94,88.40%,,88.38%,-0.94,0.19
O=P(O)(O)C(O)(Cn1ccnc1)P(=O)(O)O [Zoledronic acid],,,,,,,,,,94.25%,-0.74,89.11%,119.64%,1.60,109.99%,,100.34%,0.03,-1.52
